In patent US10294202B2, “Pyrrolidinones as herbicides” (FMC Corporation, priority 2013, dated 2019):

Assays:
corn = assay: Test A pre-/postemergence herbicide test; format: in vivo, Zea mays
Method in brief: (§1)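 Scoring was visual, relative to untreated controls, on a 0–100 scale after about 10 greenhouse days. Preemergence treatment used a directed soil spray over seeded loam/sand; postemergence treatment targeted one- to two-leaf plants of 2–10 cm.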

wheat = assay: Test A pre-/postemergence herbicide test; format: in vivo, Triticum aestivum
Method in brief: as §1

morningglory = assay: Test A pre-/postemergence herbicide test; format: in vivo, Ipomoea spp.
Method in brief: as §1

barnyardgrass [1] = assay: Test A pre-/postemergence herbicide test; format: in vivo, Echinochloa crus-galli
Method in brief: as §1

crabgrass, large = assay: Test A pre-/postemergence herbicide test; format: in vivo, Digitaria sanguinalis
Method in brief: as §1

ducksalad = assay: Test B flooded paddy test; format: in vivo, Heteranthera limosa; settings: Flood, scale of 0 to 100 where 0 is no effect and 100 is complete control
Method in brief: (§2)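 First, plants reach the 2-leaf stage; next, pots are flooded to 3 cm and compound is delivered into the water; finally, after 13 to 15 greenhouse days at constant depth, injury is graded visually from 0 to 100 against controls.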

rice = assay: Test B flooded paddy test; format: in vivo, Oryza sativa; settings: Flood, scale of 0 to 100 where 0 is no effect and 100 is complete control
Method in brief: as §2

velvetleaf = assay: Test A pre-/postemergence herbicide test; format: in vivo, Abutilon theophrasti
Method in brief: as §1

giant foxtail = assay: Test A pre-/postemergence herbicide test; format: in vivo, Setaria faberii
Method in brief: as §1

sedge, umbrella = assay: Test B flooded paddy test; format: in vivo, Cyperus difformis; settings: Flood, scale of 0 to 100 where 0 is no effect and 100 is complete control
Protocol: (§3) Plant species in the flooded paddy test selected from rice (Oryza sativa), sedge, umbrella (small-flower umbrella sedge, Cyperus difformis), ducksalad (Heteranthera limosa), and barnyardgrass (Echinochloa crus-galli) were grown to the 2-leaf stage for testing. At time of treatment, test pots were flooded to 3 cm above the soil surface, treated by application of test compounds directly to the paddy water, and then maintained at that water depth for the duration of the test. Treated plants and controls were maintained in a greenhouse for 13 to 15 days, after which time all species were compared to controls and visually evaluated. Plant response ratings, summarized in Table B, are based on a scale of 0 to 100 where 0 is no effect and 100 is complete control. A dash (-) response means no test result.

barnyardgrass [2] = assay: Test B flooded paddy test; format: in vivo, Echinochloa crus-galli; settings: Flood, scale of 0 to 100 where 0 is no effect and 100 is complete control
Protocol: as §3

pigweed = assay: Test A pre-/postemergence herbicide test; format: in vivo, Amaranthus retroflexus
Method in brief: as §1

[3] = 125 g ai/ha, visual rating, 0 to 100 scale, 0 no effect, 100 complete control, approximately 10 days, preemergence
[4] = Postemergence, 125 g ai/ha, 0 to 100 scale, 0 is no effect, 100 is complete control
[5] = preemergence, 500 g ai/ha, 0 to 100 scale, 0 is no effect and 100 is complete control
[6] = Postemergence, 500 g ai/ha, 0 to 100 scale (0 no effect, 100 complete control)
[7] = Preemergence, 125 g ai/ha, 0 to 100 scale where 0 is no effect and 100 is complete control

Structure (SMILES) | Plant response rating, Corn (corn; [4]) | Plant response rating, Corn (corn; [5]) | Plant response rating, Wheat (wheat; [4]) | Plant response rating, Wheat (wheat; [5]) | Plant response rating, Morningglory (morningglory; [4]) | Plant response rating, Morningglory (morningglory; [5]) | Plant response rating, Barnyardgrass (barnyardgrass [1]; [4]) | Plant response rating, Barnyardgrass (barnyardgrass [1]; [5]) | Plant response rating, Crabgrass, Large (crabgrass, large; [4]) | Plant response rating, Crabgrass, Large (crabgrass, large; [5]) | Plant response rating, Ducksalad (ducksalad; 1000 g ai/ha) | Plant response rating, Rice (rice; 1000 g ai/ha) | Plant response rating, Velvetleaf (velvetleaf; [4]) | Plant response rating, Velvetleaf (velvetleaf; [5]) | Plant response rating, Foxtail, Giant (giant foxtail; [4]) | Plant response rating, Foxtail, Giant (giant foxtail; [5]) | Plant response rating, Sedge, Umbrella (sedge, umbrella; 1000 g ai/ha) | Plant response rating, Barnyardgrass (barnyardgrass [2]; 1000 g ai/ha) | Plant response rating, Pigweed (pigweed; [4]) | Plant response rating, Pigweed (pigweed; [5]) | also measured
COc1ccc(C2CNC(=O)C2C(=O)Nc2ccccc2F)cc1F (racemic) [Compound 197] | 0 | 0 | 0 | 0 | 0 | 0 | 30 | 70 | 50 | 100 | 75 | 10 | 0 | 0 | 0 | 80 | 0 | 30 | 0 | 0 | Plant response rating, Corn (corn; [3]): 0; Corn plant response rating (0 to 100 scale, 0 is no effect, 100 is complete control) (corn; Postemergence, 500 g ai/ha): 0; Plant response rating, Wheat (wheat; [3]): 0; Wheat plant response rating (0 to 100 scale, 0 is no effect, 100 is complete control) (wheat; Postemergence, 500 g ai/ha): 0; Plant response rating, Morningglory (morningglory; [3]): 0; Morningglory plant response rating (0 to 100 scale, 0 is no effect, 100 is complete control) (morningglory; Postemergence, 500 g ai/ha): 10; Plant response rating, Barnyardgrass (barnyardgrass [1]; [3]): 0; Barnyardgrass plant response rating (0 to 100 scale, 0 is no effect, 100 is complete control) (barnyardgrass [1]; Postemergence, 500 g ai/ha): 70; Plant response rating, Crabgrass, Large (crabgrass, large; [3]): 80; Crabgrass, Large plant response rating (0 to 100 scale, 0 is no effect, 100 is complete control) (crabgrass, large; Postemergence, 500 g ai/ha): 70; Plant response rating, Ducksalad (ducksalad; 250 g ai/ha): 0; Plant response rating, Rice (rice; 250 g ai/ha): 0; Plant response rating, Velvetleaf (velvetleaf; [3]): 0; Velvetleaf plant response rating (0 to 100 scale, 0 is no effect, 100 is complete control) (velvetleaf; Postemergence, 500 g ai/ha): 0; Plant response rating, Foxtail, Giant (giant foxtail; [3]): 30; Foxtail, Giant plant response rating (0 to 100 scale, 0 is no effect, 100 is complete control) (giant foxtail; Postemergence, 500 g ai/ha): 40; Plant response rating, Sedge, Umbrella (sedge, umbrella; 250 g ai/ha): 0; Plant response rating, Barnyardgrass (barnyardgrass [2]; 250 g ai/ha): 0; Plant response rating, Pigweed (pigweed; [3]): 0; Pigweed plant response rating (0 to 100 scale, 0 is no effect, 100 is complete control) (pigweed; Postemergence, 500 g ai/ha): 0
O=C1NCC(c2ccc(C(F)(F)F)c(F)c2)C1C(=O)Nc1ccccc1C(F)(F)F (racemic) [Compound 248] | 0 | 0 | 0 | 0 | 0 | 0 | 20 | 80 | 50 | 90 | 95 | 0 | 0 | 0 | 30 | 90 | 0 | 55 | 0 | 0 | Plant response rating, Corn (corn; [6]): 20; Plant response rating, Corn (corn; [7]): 0; Plant response rating, Wheat (wheat; [6]): 0; Plant response rating, Wheat (wheat; [7]): 0; Plant response rating, Morningglory (morningglory; [6]): 0; Plant response rating, Morningglory (morningglory; [7]): 0; Plant response rating, Barnyardgrass (barnyardgrass [1]; [6]): 50; Plant response rating, Barnyardgrass (barnyardgrass [1]; [7]): 30; Plant response rating, Crabgrass, Large (crabgrass, large; [6]): 70; Plant response rating, Crabgrass, Large (crabgrass, large; [7]): 90; Plant response rating, Velvetleaf (velvetleaf; [6]): 0; Plant response rating, Velvetleaf (velvetleaf; [7]): 0; Plant response rating, Foxtail, Giant (giant foxtail; [6]): 50; Plant response rating, Foxtail, Giant (giant foxtail; [7]): 80; Plant response rating, Pigweed (pigweed; [6]): 0; Plant response rating, Pigweed (pigweed; [7]): 0
O=C1NCC(c2ccc(C(F)(F)F)c(Cl)c2)C1C(=O)Nc1ccccc1F (racemic) [Compound 249] | 0 | 0 | 0 | 0 | 0 | 0 | 30 | 80 | 0 | 90 | 85 | 15 | 0 | 0 | 20 | 90 | 40 | 55 | 0 | 0 | Plant response rating, Corn (corn; [6]): 0; Plant response rating, Corn (corn; [7]): 0; Plant response rating, Wheat (wheat; [6]): 0; Plant response rating, Wheat (wheat; [7]): 0; Plant response rating, Morningglory (morningglory; [6]): 0; Plant response rating, Morningglory (morningglory; [7]): 0; Plant response rating, Barnyardgrass (barnyardgrass [1]; [6]): 50; Plant response rating, Barnyardgrass (barnyardgrass [1]; [7]): 50; Plant response rating, Crabgrass, Large (crabgrass, large; [6]): 40; Plant response rating, Crabgrass, Large (crabgrass, large; [7]): 80; Plant response rating, Velvetleaf (velvetleaf; [6]): 0; Plant response rating, Velvetleaf (velvetleaf; [7]): 0; Plant response rating, Foxtail, Giant (giant foxtail; [6]): 40; Plant response rating, Foxtail, Giant (giant foxtail; [7]): 50; Plant response rating, Pigweed (pigweed; [6]): 0; Plant response rating, Pigweed (pigweed; [7]): 0
O=C1NCC(c2ccc(C(F)(F)F)c(Cl)c2)C1C(=O)Nc1cccc(F)c1F (racemic) [Compound 250] | 0 | 0 | 0 | 0 | 0 | 0 | 30 | 80 | 0 | 90 | 80 | 0 | 0 | 0 | 30 | 80 | 0 | 0 | 0 | 0 | Plant response rating, Corn (corn; [6]): 0; Plant response rating, Corn (corn; [7]): 0; Plant response rating, Wheat (wheat; [6]): 0; Plant response rating, Wheat (wheat; [7]): 0; Plant response rating, Morningglory (morningglory; [6]): 0; Plant response rating, Morningglory (morningglory; [7]): 0; Plant response rating, Barnyardgrass (barnyardgrass [1]; [6]): 50; Plant response rating, Barnyardgrass (barnyardgrass [1]; [7]): 20; Plant response rating, Crabgrass, Large (crabgrass, large; [6]): 40; Plant response rating, Crabgrass, Large (crabgrass, large; [7]): 80; Plant response rating, Velvetleaf (velvetleaf; [6]): 0; Plant response rating, Velvetleaf (velvetleaf; [7]): 0; Plant response rating, Foxtail, Giant (giant foxtail; [6]): 50; Plant response rating, Foxtail, Giant (giant foxtail; [7]): 50; Plant response rating, Pigweed (pigweed; [6]): 0; Plant response rating, Pigweed (pigweed; [7]): 0
O=C1NCC(c2ccc(C(F)(F)F)c(Cl)c2)C1C(=O)Nc1ccccc1C(F)(F)F (racemic) [Compound 251] | 0 | 0 | 0 | 0 | 0 | 0 | 0 | 80 | 0 | 90 | 90 | 0 | 0 | 0 | 0 | 80 | 0 | 45 | 0 | 30 | Plant response rating, Corn (corn; [6]): 0; Plant response rating, Corn (corn; [7]): 0; Plant response rating, Wheat (wheat; [6]): 0; Plant response rating, Wheat (wheat; [7]): 0; Plant response rating, Morningglory (morningglory; [6]): 0; Plant response rating, Morningglory (morningglory; [7]): 0; Plant response rating, Barnyardgrass (barnyardgrass [1]; [6]): 30; Plant response rating, Barnyardgrass (barnyardgrass [1]; [7]): 20; Plant response rating, Crabgrass, Large (crabgrass, large; [6]): 30; Plant response rating, Crabgrass, Large (crabgrass, large; [7]): 80; Plant response rating, Velvetleaf (velvetleaf; [6]): 0; Plant response rating, Velvetleaf (velvetleaf; [7]): 0; Plant response rating, Foxtail, Giant (giant foxtail; [6]): 20; Plant response rating, Foxtail, Giant (giant foxtail; [7]): 40; Plant response rating, Pigweed (pigweed; [6]): 20; Plant response rating, Pigweed (pigweed; [7]): 0
